Laboratory results published in PMC3076090 (Pharmaceutical research, 2010).
Read-outs that look alike come from different tables or passages of the source.

Key:
[1] = intrinsic PAMPA permeability, 10% porcine brain extract lipids in alkane; cited from earlier work
[2] = test system: blood-brain barrier; conditions: pH 7.4; S = 100 cm^2·g^−1; rat; cited from earlier work
[3] = test system: blood-brain barrier; conditions: mouse in situ brain perfusion; cited from earlier work
[4] = test system: blood-brain barrier; test: in situ rat brain perfusion, pH-dependent; conditions: for Kin: 30-s perfusion; for PcS (pH-CRE): new pH-CRE method; for log(Kin/S) (= log Pe): S = 100 cm^2·g^−1; for PcS (CRE): traditional Crone-Renkin equation; for Fpf (cerebrovascular flow velocity refined from the compound's Kin-pH data): weighted nonlinear regression, Eq. 4
[5] = pKa determination at 37°C; type: physicochemical
[6] = measured octanol-water partition coefficients from multiple sources; cited from earlier work
[7] = test system: blood-brain barrier; conditions: male, Sprague-Dawley, rat, 30 s
[8] = test system: blood-brain barrier; conditions: typical values; cited from earlier work

CN(C)CCC=C1c2ccccc2CCc2ccccc21 [Amitriptyline]
log Po^PAMPA−BBB [1]: −1.2 | log(Kin/S) (= log Pe) [2]: −3.27 ± 0.06 cm·s^−1 | Pgp effect ratio Kin^knockout/Kin^wildtype [3]: 1.0 | Kin ([4]; dosing group B-1, pH 8.0, 10 mM bicine in KRB): 0.044 ± 0.013 mL/g/s | Kin ([4]; dosing group B-2, pH 8.5, 10 mM bicine in KRB): 0.045 ± 0.014 mL/g/s | PcS (pH-CRE) ([4]; pH 7.4): 2997 | log(Kin/S) (= log Pe) ([4]; pH 8.0, this work): −3.35 ± 0.13 cm·s^−1 | PcS (pH-CRE) ([4]; pH 8.0): 10,974 | PcS (CRE) ([4]; pH 8.0): 549 | log(Kin/S) (= log Pe) ([4]; pH 8.5, this work): −3.35 ± 0.13 cm·s^−1 | PcS (pH-CRE) ([4]; pH 8.5): 28,173 | Fpf (cerebrovascular flow velocity refined from the compound's Kin-pH data) [4]: 0.051 ± 0.003 mL.g^−1.s^−1 | pKa [5]: 8.92 ± 0.1 | log POCT [6]: 4.6

Cc1cc(=O)n(-c2ccccc2)n1C [Antipyrine]
log Po^PAMPA−BBB [1]: −5.3 | Kin (range over dosing groups) ([7]; in vivo, pH 5.5): 0.0042 to 0.0082 mL/g/s | PcS (CRE) ([7]; in vivo, pH 5.5): 63 | PcS (pH-CRE) ([7]; in vivo, pH 5.5): 77 | PcS (CRE) ([7]; in vivo, pH 6.5): 54 | PcS (pH-CRE) ([7]; in vivo, pH 6.5): 77 | Kin ([7]; in vivo, pH 7.4): 82 ± 23 10^−4 mL.g^−1.s^−1 | PcS (CRE) ([7]; in vivo, pH 7.4): 92 | PcS (pH-CRE) ([7]; in vivo, pH 7.4): 77 | PcS (CRE) ([7]; in vivo, pH 8): 80 | PcS (pH-CRE) ([7]; in vivo, pH 8): 77 | PcS (CRE) ([7]; in vivo, pH 8.5): 70 | PcS (pH-CRE) ([7]; in vivo, pH 8.5): 77 | log Po (intrinsic, neutral molecule, luminal permeability) ([7]; po): −4.13 ± 0.02 cm.s^−1 | log POCT [6]: 0.6

CNCC[C@@H](Oc1ccccc1C)c1ccccc1 [Atomoxetine]
log Po^PAMPA−BBB [1]: −1.8 | log(Kin/S) (= log Pe) [2]: −3.49 ± 0.12 cm·s^−1 | Kin ([4]; dosing group B-3, pH 8.0, 10 mM bicine in KRB): 0.026 ± 0.010 mL/g/s | Kin ([4]; dosing group B-4, pH 8.5, 10 mM bicine in KRB, no CsA): 0.032 ± 0.015 mL/g/s | PcS (pH-CRE) ([4]; pH 7.4): 805 | log(Kin/S) (= log Pe) ([4]; pH 8.0, this work): −3.59 ± 0.16 cm·s^−1 | PcS (pH-CRE) ([4]; pH 8.0): 3134 | PcS (CRE) ([4]; pH 8.0): 549 | log(Kin/S) (= log Pe) ([4]; pH 8.5, this work): −3.50 ± 0.20 cm·s^−1 | PcS (pH-CRE) ([4]; pH 8.5): 9295 | Fpf (cerebrovascular flow velocity refined from the compound's Kin-pH data) [4]: 0.031 ± 0.002 mL.g^−1.s^−1 | pKa [5]: 9.5 ± 0.05 | log POCT [6]: 3.3

CN(C)CCCN1c2ccccc2CCc2ccccc21 [Imipramine]
Kin ([4]; dosing group B-5, pH 7.4, KRB): 0.031 ± 0.021 mL/g/s | Kin ([4]; dosing group B-6, pH 8.5, 10 mM bicine in KRB): 0.032 ± 0.002 mL/g/s | PcS (pH-CRE) ([4]; pH 7.4): 1416 | PcS (CRE) ([4]; pH 7.4): 1437 | PcS (pH-CRE) ([4]; pH 8.5): 15,260 | PcS (CRE) ([4]; pH 8.5): 2150 | Fpf (cerebrovascular flow velocity refined from the compound's Kin-pH data) [4]: 0.032 mL.g^−1.s^−1 | pKa [5]: 9.23 ± 0.06

COc1ccc2c(c1)c(CC(=O)O)c(C)n2C(=O)c1ccc(Cl)cc1 [Indomethacin]
log Po^PAMPA−BBB [1]: −2.7 | Kin ([4]; dosing group A-1, pH 5.5, 10 mM MES in KRB): 0.032 ± 0.008 mL/g/s | Kin ([4]; dosing group A-2, pH 6.5, 10 mM MES in KRB): 0.004 ± 0.001 mL/g/s | Kin ([4]; dosing group A-2, pH 6.5, 10 mM MES in KRB, listed as indomethacin): 0.0042 ± 0.0008 mL/g/s | log(Kin/S) (= log Pe) ([4]; pH 5.5, this work): −3.50 ± 0.10 cm·s^−1 | PcS (pH-CRE) ([4]; pH 5.5): 399 | PcS (CRE) ([4]; pH 5.5): 400 | log(Kin/S) (= log Pe) ([4]; pH 6.5, this work (sertraline with 5 µM CsA)): −4.39 ± 0.08 cm·s^−1 | PcS (pH-CRE) ([4]; pH 6.5): 42 | PcS (CRE) ([4]; pH 6.5): 42 | Fpf (cerebrovascular flow velocity refined from the compound's Kin-pH data) [4]: 0.081 mL.g^−1.s^−1 | log POCT [6]: 3.5

CNCCCC12CCC(c3ccccc31)c1ccccc12 [Maprotiline]
log Po^PAMPA−BBB [1]: −0.6 | Kin ([4]; dosing group B-7, pH 8.0, 10 mM bicine in KRB): 0.052 ± 0.011 mL/g/s | Kin ([4]; dosing group B-8, pH 8.5, 10 mM bicine in KRB): 0.036 ± 0.013 mL/g/s | log(Kin/S) (= log Pe) ([4]; pH 7.4, this work): −3.48 ± 0.11 cm·s^−1 | PcS (pH-CRE) ([4]; pH 7.4): 591 | PcS (CRE) ([4]; pH 7.4): 580 | log(Kin/S) (= log Pe) ([4]; pH 8.0, this work): −3.29 ± 0.09 cm·s^−1 | PcS (pH-CRE) ([4]; pH 8.0): 2335 | log(Kin/S) (= log Pe) ([4]; pH 8.5, this work): −3.44 ± 0.15 cm·s^−1 | PcS (pH-CRE) ([4]; pH 8.5): 7234 | PcS (CRE) ([4]; pH 8.5): 691 | Fpf (cerebrovascular flow velocity refined from the compound's Kin-pH data) [4]: 0.047 ± 0.006 mL.g^−1.s^−1 | pKa [5]: 10.01 ± 0.01 | log POCT [6]: 5.1

CN[C@H]1CC[C@@H](c2ccc(Cl)c(Cl)c2)c2ccccc21 [Sertraline]
log POCT [6]: 4.9

OC[C@H]1O[C@@](CO)(O[C@H]2O[C@H](CO)[C@@H](O)[C@H](O)[C@H]2O)[C@@H](O)[C@@H]1O [sucrose]
in vivo Pc (paracellular) [8]: about 0.15 10^−6 cm·s^−1

inulin
in vivo Pc (paracellular) [8]: ~0.04 10^−6 cm·s^−1
